Test results published in ChEMBL document CHEMBL1149601, “Molecular design, chemical synthesis, and biological evaluation of '4-1' pentacyclic aryl/heteroaryl-imidazonaphthalimides” (Bioorg Med Chem, 2007).

Legend:
A549 = test: Growth inhibition of human A549 cells by SRB assay; type: functional, cell-based
DNA = test: Binding affinity to calf thymus DNA; type: nucleic-acid assay; details: Bos taurus
P388 = test: Growth inhibition of mouse P388 cells by MTT assay; type: functional, cell-based
HeLa = test: Growth inhibition of human HeLa cells by MTT assay; type: functional, cell-based
HL-60 = test: Growth inhibition of human HL60 cells by MTT assay; type: functional, cell-based
SMMC-7721 = test: Growth inhibition of human SMMC7721 cells by MTT assay; type: functional, cell-based

SMILES	IC50 (A549) [nM]	ΔTm (DNA) [°C]	IC50 (P388) [nM]	IC50 (HeLa) [nM]	IC50 (HL-60) [nM]	IC50 (SMMC-7721) [nM]
CN(C)CCN1C(=O)c2cccc3c2c(cc2[nH]c(-c4ccncc4)nc23)C1=O	60900	4.8	5650	5350	2660	1760
CN(C)CCN1C(=O)c2cccc3c2c(cc2[nH]c(-c4ccsc4)nc23)C1=O	8590	8.4	160	540	580	930
CN(C)CCN1C(=O)c2cccc3c2c(cc2[nH]c(-c4ccco4)nc23)C1=O	7230	6.8	650	1730	6240	1300
CN(C)CCN1C(=O)c2cccc3c2c(cc2[nH]c(-c4ccc(Cl)cc4)nc23)C1=O	9130	7.1	950	280	3280	270
CN(C)CCN1C(=O)c2cccc3c2c(cc2[nH]c(-c4ccoc4)nc23)C1=O	7480	6.7	710	13900	5210	880
CN(C)CCN1C(=O)c2cccc3c2c(cc2[nH]c(-c4ccc(N(C)C)cc4)nc23)C1=O	8500	12.1	1680	250	1080	2860
COc1ccc(-c2nc3c(cc4c5c(cccc53)C(=O)N(CCN(C)C)C4=O)[nH]2)cc1	2160	7	3720	210	460	1350
CCOc1ccc(-c2nc3c(cc4c5c(cccc53)C(=O)N(CCN(C)C)C4=O)[nH]2)cc1	14700	10.5	2480	520	4580	1020
CN(C)CCN1C(=O)c2cccc3cc(N)cc(c23)C1=O [AMONAFIDE]	13000	–	4560	1400	1630	4150
CN(C)CCN1C(=O)c2cccc3c2c(cc2[nH]c(-c4ccc(C(F)(F)F)cc4)nc23)C1=O	26200	4.8	710	400	4900	1630
COc1ccc(-c2nc3c(cc4c5c(cccc53)C(=O)N(CCN(C)C)C4=O)[nH]2)cc1OC	600	13.3	1070	5190	10400	220
COc1cc(-c2nc3c(cc4c5c(cccc53)C(=O)N(CCN(C)C)C4=O)[nH]2)ccc1O	5080	7.8	1920	> 100000	50500	> 100000
CN(C)CCN1C(=O)c2cccc3c2c(cc2[nH]c(-c4ccc[nH]4)nc23)C1=O	450	5.7	210	3300	3030	2990
CN(C)CCN1C(=O)c2cccc3c2c(cc2[nH]c(-c4ccccn4)nc23)C1=O	9330	3.8	770	2710	300	3360
CN(C)CCN1C(=O)c2cccc3c2c(cc2[nH]c(-c4cccnc4)nc23)C1=O	9970	4	2310	1160	1330	1290
CN(C)CCN1C(=O)c2cccc3c2c(cc2[nH]c(-c4cccn4C)nc23)C1=O	410	6.2	210	7980	3660	2900
CN(C)CCN1C(=O)c2cccc3c2c(cc2[nH]c(-c4cccs4)nc23)C1=O	6670	6.9	4150	1340	590	3270
Cc1ccc(-c2nc3c(cc4c5c(cccc53)C(=O)N(CCN(C)C)C4=O)[nH]2)cc1	5530	6.6	5500	320	1040	580
CN(C)CCN1C(=O)c2cccc3c2c(cc2[nH]c(-c4ccccc4)nc23)C1=O	7540	7.2	860	400	860	3360
CN(C)CCN1C(=O)c2cccc3c2c(cc2[nH]c(-c4ccc(O)cc4)nc23)C1=O	17800	6.3	1100	13100	23000	> 100000
